In patent publication US20230028293A1, “MULTIPLE MYELOMA COMBINATION THERAPIES BASED ON PROTEIN TRANSLATION INHIBITORS AND IMMUNOMODULATORS” (The Regents of the University of Colorado, a body corporate, priority 2019, published 2023):
Where “and” joins values, the source holds several entries; their conditions need not be identical. Equal values may be shown once.

Columns and labels:
[1] = tested on: protein translation in MM cell lines and primary MM cells; assay: OP-Puro protein translation assay in vitro; type: cell-based
Description: To examine whether myeloma cells depend on inherently high protein synthesis, the O-Propargyl-puromycin (OP-Puro) assay was used to measure the rate of amino-acid incorporation into translating ribosomes by flow cytometry.
Protein synthesis levels were determined in vitro utilizing the puromycin analog O-propargyl-puromycin (OP-Puro) in the protein synthesis assay kit (Cayman Chemical) according to manufacturer instructions. For in vivo protein synthesis, engrafted NSG mice were injected IP with 500 μg puromycin (Gibco), then euthanized after 1.5 h, marrow was flushed, and cells stained with anti-puromycin antibody (12D10, Alexa-488, Millipore Sigma), followed by flow cytometry.

[2] = tested on: U266, H929, MM1.S, MM1.R and RPMI-8226 MM cell lines; assay: MM cell line proliferation / cytotoxicity assay (CellTiter-Glo or MTS); type: cell-based; details: range over five MM cell lines, 96 h incubation; read-out: EC50 of inhibition of cell proliferation
Description: Omacetaxine was tested in MM cell lines in vitro and in MM patient bone marrow aspirates ex vivo. The reported cytotoxicity of omacetaxine was verified in cell culture using the U266, H929, MM1.S, MM1.R and RPMI-8226 MM cell lines. […] In a timecourse study, omacetaxine-mediated induction of apoptosis started at 2 h, and cell death began after 24 h (FIGS. 1B, 1C, and 2A).
Either CellTiter-Glo Luminescent Cell Viability or CellTiter 96 AQueous MTS Cell Proliferation assay (Promega, Madison Wis.) were used to generate dose response curves of myeloma cell line proliferation treated with various anti-myeloma agents. Working solutions of CellTiter-Glo or CellTiter AQueous reagent were prepared per manufacturer instructions. Cells were combined with drug of interest at a concentration of 50,000 cells/well and incubated in 96-well culture plates at 37° C. for 96 h. After the incubation, the viability or proliferation results were obtained via Vmax Kinetic Microplate Reader (Molecular Devices, Sunnyvale Calif.). Cell line toxicity was also measured using high throughput flow cytometry.

[3] = tested on: luc-MM1.S cells in NSG mice; assay: In vivo protein translation (puromycin incorporation) in luc-MM1.S xenograft; details: 1, 2 or 3 mg/kg IP; greatest effect at 3 mg/kg
Description: To extend the findings to an in vivo model, the effects of omacetaxine were examined using a firefly luciferase-expressing myeloma cell line, MM1.S (luc-MM1.S) to generate xenografts in NSG mice. The pharmacodynamics of omacetaxine were studied in this model. Mice were injected with luc-MM1.S cells and allowed to establish disease, followed by treatment with 1, 2, or 3 mg/kg omacetaxine, or with the vehicle control by intraperitoneal (IP) injection, followed by puromycin injection one hour later, and sacrificed 1.5 hours later, with bone marrow harvest and […] incorporation by flow cytometry (FIG. 9A).
Protein synthesis levels were determined in vitro utilizing the puromycin analog O-propargyl-puromycin (OP-Puro) in the protein synthesis assay kit (Cayman Chemical) according to manufacturer instructions. […]
For in vivo assessment of omacetaxine, 5×10^5 MM1.S cells stably expressing firefly luciferase were injected intravenously into NSG mice (Jackson Labs, Bar Harbor, Me.) to generate an orthometastatic MM xenograft model. […] Tumor status was assessed by BLI, and the results were analyzed by Living Image (PerkinElmer). Following treatment, the mice were continuously monitored for survival endpoints.

[4] = tested on: IMiD-resistant relapsed MM patient sample; assay: Two-drug combination matrix in primary MM patient sample, ZIP synergy; type: cell-based, human
Description: Drug combination studies were set up using a full matrix design with myeloma cell lines or primary samples. Synergy was calculated using ZIP delta score via the SnergyFinder online tool (synergyfinder.fimm.fi). Combination index values were calculated using the CompuSyn software (ComboSyn Inc).

MM1.S cells [5] = assay: Whole cell proteomics of treated MM cells; type: cell-based; details: omacetaxine 4 h, pomalidomide 24 h, staggered combination
Description: Whole cell proteomics of MM cells treated with the omacetaxine/pomalidomide combination were compared to single agent treatments at a timepoint before substantial apoptosis or cell death began. Although omacetaxine is rapidly cytotoxic to MM cells, the cytotoxicity of pomalidomide occurs after a longer delay, with apoptosis and cell death beginning at 24 h (FIG. 10A). […] For proteomics, MM1.S cells were treated in triplicate with omacetaxine for 4 h, pomalidomide for 24 h, or the staggered combination treatment and compared to untreated controls.
Cells were lysed with RIPA buffer (Thermo Fisher Scientific) and digested according to the FASP protocol. Recovered peptides were dried, desalted, and concentrated on Thermo Scientific Pierce C18 Tips. Cell lysates were analyzed using an Orbitrap Fusion mass spectrometer connected to an EASY-nLC 1200 system (Thermo Fisher Scientific) with a nanoelectrospray ion source. Data was acquired using the Xcaliburm (version 4.1) software. MS/MS spectra were extracted, and Proteome Discoverer Software (ver. 2.1.0.62) was used to convert the raw data into mgf files. The files were then searched against a human database using an in-house Mascot server (Version 2.6, Matrix Science). Scaffold (version 4.8, Proteome Software, Portland, Oreg.) was used to validate MS/MS based peptide and protein identifications. […]

MM1.S cells [6] = assay: Timecourse of apoptosis and cell death by Annexin V and DAPI flow cytometry; type: cell-based
Source text: FIG. 2A depicts the timecourse of induction of apoptosis and cell death by omacetaxine in MM1.S cells as measured by Annexin V and DAPI staining by flow cytometry.
FIG. 10A depicts the timecourse of induction of apoptosis and cell death by pomalidomide in MM1.S cells as measured by annexin V and DAPI staining by flow cytometry.

BCL2 = assay: Quantitative intracellular flow cytometry of BCL2; type: cell-based; details: 50 nM, 6 h
Description: Quantitative flow cytometry was used to measure MCL1 and BCL2 densities per cell. Anti-MCL1 and anti-BCL2 antibodies were labeled with Alexa Fluor 647 (Molecular Probes/life Technologies) according to manufacturer's instructions. Intracellular staining of MCL1 and BCL2 was conducted following permeabilization with the Cytofix/Cytoperm kit (BD). Mean fluorescence intensity was converted to molecules of equivalent soluble fluorochrome (MESF) by generating a standard curve with Quantum™ beads (Bangs Labs, Fishers, Ind.). The fluorophore-to-antibody ratio of the labeled antibodies was determined using Simply Cellular® anti-mouse IgG beads (Bangs Labs). Finally, conversion of MESF to cell surface antigen density was calculated by dividing by the fluorophore-to-antibody ratio.

For `COC(=O)C[C@](O)(CCCC(C)(C)O)C(=O)O[C@@H]1C(OC)=C[C@]23CCCN2CCc2cc4c(cc2[C@H]13)OCO4` [omacetaxine, Omacetaxine mepesuccinate], the “translation in primary MM samples after treatment” value ([1]; 50 nM, 2.5 h, 14 primary samples, to near MNC levels) was “significantly reduced”, the EC50 ([1]; Homo sapiens, NCI-H929, 2.5 h, H929 MM cell line and primary patient MM cells, read-out: EC50 of inhibition of protein translation) was 9 nM and the “ability to inhibit translation in myeloma cell lines” value ([1]; omacetaxine 50 nM 2.5 h, bortezomib 6 h, 24 h, 48 h) was “observed across all myeloma cell lines tested”. For the same molecule, the EC50 [2] was 15 to 35 nM, the “protein translation rate in luc-MM1.S cells in vivo” value [3] was “dose-dependent decrease” and the “effect of combination with Pom on IMiD sensitivity of patient MM cells” value ([4]; IMiD-resistant relapsed patient sample) was “re-sensitized”. For the same molecule, the “ZIP δ-score for synergy with Pom in patient sample” value ([4]; IMiD-resistant relapsed patient sample HTB-576) was 22.68 and 22.7, the “proteins among the most downregulated versus untreated controls” value (MM1.S cells [5]) was “IGL1 and JCHAIN” and the “time at which cell death began” value (MM1.S cells [6]) was 24 h. The “time at which induction of apoptosis started” value (MM1.S cells [6]) was 2 h and the “Bcl-2 level in myeloma cells” value (BCL2) was “does not decrease”.
